Laboratory results as given in US12384758B2, “Crystalline form of LNP023” (Novartis AG, priority 2020, dated 2025).

Test: Dynamic vapor sorption (DVS) isotherms, 0 to 95% relative humidity
Assay type: physicochemical
Conditions: 25±1.0° C.
Description: Dynamic vapor sorption isotherms were recorded with a DVS Advantage instrument. The measurement cycle was started at ambient relative humidity (RH) of 40%. RH was then decreased to 0% in 10% steps. […] 5% steps. Finally, RH was increased to ambient relative humidity of 40% in 10% steps. The time per step was set to a minimum of 3 hours and a maximum of 6 hours. If an equilibrium condition with a constant mass change of 0.002%/min for a minimum of 5 min was reached before the maximum time for all examined samples the sequential humidity step was applied before the maximum time of 6 hours. If no equilibrium was achieved the consecutive humidity step was applied after the maximum time of 6 hours. The temperature was 25±1.0° C.
Therefore, Form HB of LNP023 hydrochloride described herein can be assigned as being non-hygroscopic.

CCO[C@H]1CCN(Cc2c(OC)cc(C)c3[nH]ccc23)[C@H](c2ccc(C(=O)O)cc2)C1.Cl [Form HB of LNP023 hydrochloride, 4-((2S,4S)-(4-ethoxy-1-((5-methoxy-7-methyl-1H-indol-4-yl)methyl)piperidin-2-yl))benzoic acid hydrochloride]
hysteresis between the sorption and desorption curve (DVS sorption 0% to 95% RH, desorption 95 to 0% RH): no significant hysteresis
mass difference between 40 and 95% RH (DVS equilibrium mass change) (DVS, reference weight at 0% RH): less than 0.2 weight %
PXRD after the DVS experiment (physical stability of the form) (after DVS cycle 0 to 95% RH): remains unchanged
hygroscopicity assignment (from DVS, non-hygroscopic defined in b47 as mass increase of less than 0.2% at 80% RH at 25° C.): non-hygroscopic
